Laboratory results taken from the NIST ThermoML archive (doi:10.1021/je800110r).

Settings: 303.16 K, Liquid, Vibrating tube method

CCCCCCCCCC [decane]
Settings	mass density [kg/m3]
9263 kPa	729.6
9277 kPa	729.6
9288 kPa	729.7
9302 kPa	729.7
9321 kPa	729.7
9332 kPa	729.7
9348 kPa	729.7
9360 kPa	729.7
9372 kPa	729.7
9392 kPa	729.7
9407 kPa	729.8
9419 kPa	729.8
9433 kPa	729.7
9449 kPa	729.9
9461 kPa	729.8
9473 kPa	729.8
9491 kPa	729.7
9509 kPa	729.9
9521 kPa	729.8
9535 kPa	729.8
9552 kPa	729.9
9566 kPa	729.8
9581 kPa	729.7
9595 kPa	729.9
9608 kPa	729.9
9624 kPa	729.9
9639 kPa	729.8
9655 kPa	729.9
9672 kPa	730
9685 kPa	729.8
9704 kPa	729.9
9725 kPa	730
9738 kPa	730
9754 kPa	730
9767 kPa	730.2
9778 kPa	730
9793 kPa	730.1
9808 kPa	729.9
9820 kPa	730
9831 kPa	730.1
9841 kPa	730.1
9855 kPa	730.1
9870 kPa	730.1
9881 kPa	730.2
9900 kPa	730.1
9913 kPa	730.1
9921 kPa	730.2
9935 kPa	730.2
9946 kPa	730.2
9956 kPa	730.2
9969 kPa	730.2
9979 kPa	730.1
9992 kPa	730.3
10003 kPa	730.3
10021 kPa	730.1
10032 kPa	730.2
10048 kPa	730.2
10090 kPa	730.4
10106 kPa	730.3
10117 kPa	730.4
10132 kPa	730.2
10145 kPa	730.3
10164 kPa	730.3
10176 kPa	730.5
10188 kPa	730.3
10206 kPa	730.3
10221 kPa	730.3
10231 kPa	730.4
10246 kPa	730.4
10276 kPa	730.4
10289 kPa	730.5
10302 kPa	730.4
10318 kPa	730.5
10331 kPa	730.4
10343 kPa	730.5
10358 kPa	730.5
10374 kPa	730.4
10385 kPa	730.4
10401 kPa	730.6
10414 kPa	730.4
10432 kPa	730.6
10446 kPa	730.4
10458 kPa	730.6
10475 kPa	730.6
10487 kPa	730.5
10499 kPa	730.6
10515 kPa	730.7
10527 kPa	730.7
10545 kPa	730.6
10562 kPa	730.7
10574 kPa	730.6
10584 kPa	730.6
10602 kPa	730.7
10616 kPa	730.7
10630 kPa	730.7
10646 kPa	730.7
10659 kPa	730.7
10672 kPa	730.6
10688 kPa	730.8
10707 kPa	730.8
10717 kPa	730.7
10729 kPa	730.8
10748 kPa	730.7
10765 kPa	730.9
10779 kPa	730.7
10791 kPa	730.8
10806 kPa	730.8
10823 kPa	730.8
10836 kPa	730.7
10856 kPa	730.8
10873 kPa	730.9
10886 kPa	731
10904 kPa	731
10917 kPa	731.1
10937 kPa	730.9
10954 kPa	731
10969 kPa	730.8
10986 kPa	731
11001 kPa	730.9
11014 kPa	731
11030 kPa	731.1
11049 kPa	731
11062 kPa	730.9
11082 kPa	731
11102 kPa	731.1
11116 kPa	731.1
11133 kPa	731
11149 kPa	731
11162 kPa	731
11186 kPa	731.1
11200 kPa	731.1
11216 kPa	731.1
11234 kPa	731.2
11257 kPa	731.1
11275 kPa	731.2
11291 kPa	731.2
11312 kPa	731.2
11330 kPa	731.2
11347 kPa	731.2
11365 kPa	731.2
11379 kPa	731.1
11396 kPa	731.2
11417 kPa	731.3
11436 kPa	731.3
11452 kPa	731.4
11469 kPa	731.4
11485 kPa	731.3
11504 kPa	731.4
11519 kPa	731.2
11533 kPa	731.3
11553 kPa	731.3
11570 kPa	731.4
11589 kPa	731.5
11609 kPa	731.2
11623 kPa	731.4
11643 kPa	731.3
11660 kPa	731.4
11677 kPa	731.5
11695 kPa	731.6
11712 kPa	731.6
11732 kPa	731.5
11749 kPa	731.5
11762 kPa	731.6
11782 kPa	731.5
11797 kPa	731.5
11820 kPa	731.6
11843 kPa	731.7
11858 kPa	731.6
11881 kPa	731.7
11901 kPa	731.7
11916 kPa	731.7
11942 kPa	731.6
11962 kPa	731.7
11978 kPa	731.6
11996 kPa	731.6
12012 kPa	731.6
12034 kPa	731.8
12055 kPa	731.8
12070 kPa	731.8
12097 kPa	731.7
12118 kPa	731.7
12135 kPa	731.8
12159 kPa	731.8
12183 kPa	731.9
12196 kPa	731.9
12215 kPa	731.9
12234 kPa	731.7
12254 kPa	731.8
12270 kPa	731.9
12289 kPa	731.9
12305 kPa	732
12321 kPa	732.1
12346 kPa	731.9
12371 kPa	732
12391 kPa	732.1
12410 kPa	732.1
12430 kPa	731.9
12452 kPa	732.1
12470 kPa	732.1
12489 kPa	732.1
12509 kPa	732
12535 kPa	732.1
12555 kPa	732
12575 kPa	732.1
12592 kPa	732.2
12618 kPa	732.2
12635 kPa	732.1
12653 kPa	732.1
12679 kPa	732.2
12702 kPa	732.3
12723 kPa	732.2
12747 kPa	732.3
12767 kPa	732.3
12785 kPa	732.3
12809 kPa	732.2
12833 kPa	732.2
12850 kPa	732.4
12872 kPa	732.4
12896 kPa	732.5
12917 kPa	732.4
12942 kPa	732.3
12960 kPa	732.4
12984 kPa	732.4
13003 kPa	732.3
13025 kPa	732.5
13047 kPa	732.5
13074 kPa	732.6
13102 kPa	732.6
13121 kPa	732.4
13143 kPa	732.6
13165 kPa	732.5
13187 kPa	732.5
13210 kPa	732.5
13232 kPa	732.6
13251 kPa	732.6
13274 kPa	732.8
13296 kPa	732.7
13316 kPa	732.6
13344 kPa	732.6
13373 kPa	732.6
13393 kPa	732.7
13422 kPa	732.8
13451 kPa	732.7
13471 kPa	732.9
13501 kPa	732.8
13528 kPa	732.7
13551 kPa	732.8
13581 kPa	732.8
13605 kPa	732.9
13631 kPa	732.9
13656 kPa	733
13679 kPa	733
13699 kPa	733.1
13723 kPa	732.9
13747 kPa	732.9
13776 kPa	733
13797 kPa	732.9
13819 kPa	733.1
13850 kPa	733
13875 kPa	733.2
13903 kPa	733.1
13931 kPa	733.1
13957 kPa	733.1
13985 kPa	733.2
14017 kPa	733.2
14039 kPa	733.2
14064 kPa	733.2
14097 kPa	733.2
14129 kPa	733.3
14154 kPa	733.3
14184 kPa	733.4
14209 kPa	733.3
14239 kPa	733.4
14262 kPa	733.4
